Experimental data: patent publication US12606508B2, “Cannabis extracts and uses thereof” (priority 2020, dated 2026)
Entries after “also recorded” stand apart in the source; their conditions may differ. Where two headings read alike, the source gives them in different places.

Legend:
human CB2 receptor = molecular target: T1, human CB2 receptor (Homo sapiens, UniProt P34972); test: Radioligand binding assay at human CB2 receptor ([^3H]WIN 55212-2 displacement, Eurofins Discovery)
T1 construct: Eurofins Discovery (contract assay)
T1 sequence (P34972 whole entry): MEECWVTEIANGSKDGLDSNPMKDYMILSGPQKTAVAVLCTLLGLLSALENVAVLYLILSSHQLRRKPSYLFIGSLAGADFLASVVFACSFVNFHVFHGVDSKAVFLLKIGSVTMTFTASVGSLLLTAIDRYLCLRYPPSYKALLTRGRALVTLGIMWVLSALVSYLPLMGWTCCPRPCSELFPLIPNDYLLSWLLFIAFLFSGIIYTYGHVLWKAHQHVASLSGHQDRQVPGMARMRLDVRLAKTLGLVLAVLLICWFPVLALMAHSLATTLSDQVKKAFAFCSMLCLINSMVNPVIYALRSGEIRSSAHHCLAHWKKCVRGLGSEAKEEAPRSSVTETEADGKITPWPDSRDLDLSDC
Protocol: 2.2.4 Binding affinity at human CB1 and CB2 receptors. The binding affinity of (−)-trans-Δ^9-THCB against purified human CB1 and CB2 receptors was determined in a radioligand binding assay. The capability of the ligand to displace radiolabeled [^3H]
Binding at CB1 and CB2 Receptors. The binding affinity of (−)-trans-Δ^9-THCB against human CB1 and CB2 receptors was determined in a radioligand binding assay performed by Eurofins Discovery. The compound was tested at ten concentrations, ranging from 1 nM to 30 μM, in duplicate. The compound binding was calculated as a % inhibition of the binding of a radioactively labeled ligand specific for each target. […] The results were expressed as a percent inhibition of control specific binding obtained in the presence of the tested compounds using eq. 1.
The IC50 values (concentration causing a half-maximal inhibition of control specific binding) were determined by non-linear regression analysis of the competition curves generated with mean replicate values (eq. 2)^55.
Where Y is the specific binding, A is the left asymptote of the curve, D is the right asymptote f the curve, C is the compound concentration, C50 is the IC50 value and nH is the slope factor. […] The inhibition constants (Ki) were calculated using the Cheng Prusoff equation: […]
3.1.4 Binding affinity at human CB1 and CB2 receptors. […] The binding affinity of (−)-trans-Δ^9-THCP against human CB1 and CB2 receptors was assessed by Eurofins Discovery using a radioligand binding assay. […] Eq. 1 was employed to calculate the percent inhibition of control specific binding obtained in the presence of the tested compounds. […]
Where Y is the specific binding, A is the left asymptote of the curve, D is the right asymptote f the curve, C is the compound concentration, C50 is the IC50 value and nH is the slope factor. […] The inhibition constants (Ki) were determined using the Cheng Prusoff equation (eq. 3): […]

C57BL6/J mice [1] = test: Tetrad: open field test (spontaneous/motor activity); assay type: in vivo; conditions: mean±SEM
Protocol: (§1) Mice (n=4) were treated with Δ^9-THCB (10 and 20 mg/kg) or vehicle (0.9% saline and 0.05% DMSO) by intraperitoneal (i.p.) administration. Mice were evaluated for hypomotility (open field test), hypothermia (body temperature test), antinociceptive (hot plate test), and cataleptic effects (bar test), using the tetrad tests as described in the protocol by Metna-Laurent M. et al.^62 Statistical analysis was performed using the Kruskall-Wallis test and Dunn's post hoc tests.
Open field test. The open field test (OFT) was performed 30 min after drug or vehicle injection. The apparatus was cleaned before each test using a 70% EtOH solution. After randomly assigning naïve mice to a treatment group, the operator started to record animal behaviors, which were stored and analyzed using an automated behavioral tracking system (Smart v3.0, Panlab Harvard Apparatus). Mice were placed in an OFT arena (1×w×h: 44 cm×44 cm×30 cm), and ambulatory activity (total distance travelled in cm), was recorded for 15 min and analyzed.
(§2) Male C57BL6/J mice (7 weeks old; n=5) were treated with Δ^9-THCP (10, 5 and 2.5 mg/kg) or vehicle (1:1:18; ethanol:Kolliphor EL:0.9% saline) by i.p. administration. Mice were evaluated for hypomotility (open field test), hypothermia (body temperature), antinociceptive (hot plate test), and cataleptic (bar test) effects, using the tetrad tests^58. Statistical analysis was performed using the Kruskall-Wallis test and Dunn's post hoc tests.
Openfield. The open field test was used for the evaluation of motor activity. Behavioral assays were performed 30 min after drug (or vehicle) injection. The apparatus was cleaned before each behavioral session by solution of 70% ethanol. Naïve mice were randomly assigned to a treatment group. Behaviors were recorded, stored, and analyzed using an automated behavioral tracking system (Smart v3.0, Panlab Harvard Apparatus). Mice were placed in an OFT arena (1×w×h: 25 cm×25 cm), and ambulatory activity (total distance travelled in centimeter), were recorded for 15 minutes and analyzed.

C57BL6/J mice [2] = test: Tetrad: hot plate test (analgesia); assay type: in vivo; conditions: 52° C., 85 min after administration, mean±SEM
Protocol: as §1
Hotplate test. Each mouse was placed on a hot plate (Ugo Basile), which was kept at a constant temperature of 52° C. The nociceptive response (NR) was recorded as characteristic actions of the mouse like licking of the hind paws, as well as jumping. The latency to the NR was measured in sec 85 minutes after drug or vehicle administration. A 30 or 60 sec cut-off time was used in order to prevent tissue damage.
as §2
Hot plate. Changes in nociception were evaluated by the hot plate test. On the day of experiment each mouse was placed on a hot plate (Ugo Basiele) at a constant temperature of 52° C. Licking of the hind paws, as well as jumping, were considered as a nociceptive response (NR) and the latency was measured in seconds 85 minutes after drug or vehicle administration. The latency to the NR was recorded and a 30 or 60 s cut-off time was used in order to prevent tissue damage.

C57BL6/J mice [3] = test: Tetrad test, overall cannabimimetic profile; assay type: in vivo; conditions: i.p.
Protocol: Tetrad test. Male C57BL6/J mice 6-8 weeks (Envigo, Italy) were housed under controlled conditions (12 h light/12 h dark cycle; temperature 20-22 C; humidity 55-60%) with chow and tap water available ad libitum. All surgeries and experimental procedures were approved by the Animal Ethics Committee of University of Campania “L. Vanvitelli,” Naples. Animal care was in compliance with Italian (D.L. 116/92) and European Commission (O.J. of E.C. L358/1 […]) regulations on the protection of laboratory animals. All efforts were made to minimize animal suffering and to reduce the number of animals used. All the experiments were performed in a randomized manner by the same operator blind to pharmacological treatments.
as §1, §2

CCCCc1cc(O)c2c(c1)OC(C)(C)[C@@H]1CCC(C)=C[C@@H]21 [Δ^9-THCB, (6aR,10aR)-3-butyl-6,6,9-trimethyl-6a,7,8,10a-tetrahydro-6H-benzo[c]chromen-1-ol]
Ki (human CB2 receptor; Cheng Prusoff from IC50, [^3H]WIN 55212-2 radioligand, read-out: hCB2 Ki): 51 nM | IC50 (human CB2 receptor; displacement of [^3H]WIN 55212-2, ten concentrations 1 nM to 30 μM, duplicate, SD within ±10%, read-out: hCB2 IC50): 79 nM | open field: distance travelled (C57BL6/J mice [1]; Δ^9-THCB 10 mg/kg i.p., 30 min after injection, 15 min, n=4, vehicle 3283): 3220 cm | open field: distance travelled (C57BL6/J mice [1]; Δ^9-THCB 20 mg/kg i.p., 30 min after injection, 15 min, n=4, vehicle 3283): 3591 cm | hot plate: latency to nociceptive response (C57BL6/J mice [2]; Δ^9-THCB 10 mg/kg i.p., n=4, vehicle 10.15): 7.94 s | hot plate: latency to nociceptive response (C57BL6/J mice [2]; Δ^9-THCB 20 mg/kg i.p., n=4, vehicle 10.15): 17.50 s | cannabimimetic profile in the tetrad test (in words) (C57BL6/J mice [3]): partial agonistic activity; also recorded: partial agonist for CB1 receptor

CCCCCCCc1cc(O)c2c(c1)OC(C)(C)[C@@H]1CCC(C)=C[C@@H]21 [Δ^9-THCP, (6aR,10aR)-3-heptyl-6,6,9-trimethyl-6a,7,8,10a-tetrahydro-6H-benzo[c]chromen-1-ol]
Ki (human CB2 receptor): 6.2 nM | open field: distance travelled (C57BL6/J mice [1]; Δ^9-THCP 2.5 mg/kg i.p., n=5, vehicle 6888): 4072 cm | open field: distance travelled (C57BL6/J mice [1]; Δ^9-THCP 5 mg/kg i.p., n=5, vehicle 6888): 127.5 cm | open field: distance travelled (C57BL6/J mice [1]; Δ^9-THCP 10 mg/kg i.p., n=5, vehicle 6888): 166.8 cm | hot plate: latency to nociceptive response (C57BL6/J mice [2]; Δ^9-THCP 2.5 mg/kg i.p., not statistically significant, n=5, vehicle 19.20): 40.22 s | hot plate: latency to nociceptive response (C57BL6/J mice [2]; Δ^9-THCP 5 mg/kg i.p., n=5, vehicle 19.20): 54.38 s | hot plate: latency to nociceptive response (C57BL6/J mice [2]; Δ^9-THCP 10 mg/kg i.p., n=5, vehicle 19.20): 57.0 s | cannabimimetic profile in the tetrad test (in words) (C57BL6/J mice [3]): THC-like cannabimimetic activity; also recorded: miming the properties of full CB1 receptor agonists | dose at which active in three of the four tetrad tests (C57BL6/J mice [3]): 5 mg/kg
